According to publication PMC10703426, “New characterization of dihydroergotamine receptor pharmacology in the context of migraine: utilization of a β-arrestin recruitment assay” (Frontiers in Neurology, 2023):
Entries after “also recorded” stand apart in the source; their conditions may differ. Counter-ions that a name gives are not always drawn.

Legend:
[1] = system: 5-HT1B/1D receptors; design: method as in doi:10.1186/1129-2377-14-S1-P75; conditions: cited from earlier work
[2] = target: CXCR7 (Homo sapiens, UniProt P25106); experiment: gpcrMAX PathHunter β-arrestin recruitment, agonist mode; format: cell-based; design: ProLink enzyme-donor fragment of β-galactosidase (own knowledge of the PathHunter design)
Sequence of CXCR7 (P25106 whole entry, the tested form may be a part): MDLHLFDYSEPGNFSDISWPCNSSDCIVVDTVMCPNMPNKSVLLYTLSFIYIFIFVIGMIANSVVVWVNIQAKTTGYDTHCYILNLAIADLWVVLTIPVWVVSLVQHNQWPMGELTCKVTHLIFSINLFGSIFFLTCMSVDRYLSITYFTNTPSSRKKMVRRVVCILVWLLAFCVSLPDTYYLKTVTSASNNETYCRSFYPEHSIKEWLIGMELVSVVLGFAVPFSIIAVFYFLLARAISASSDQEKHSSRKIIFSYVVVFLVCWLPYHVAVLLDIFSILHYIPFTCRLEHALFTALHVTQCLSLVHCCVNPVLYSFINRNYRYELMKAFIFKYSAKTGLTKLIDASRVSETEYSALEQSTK
Protocol: PathHunter cell lines were expanded from freezer stocks according to standard procedures and cells were seeded in a total volume of 20 μL into white-walled, 384-well microplates in duplicate and incubated at 37°C prior to testing. […] Intermediate dilution (1% vehicle concentration) of sample stocks was performed to generate a 5× sample in assay buffer, of which 5 μL was added to the cells and incubated for 90 or 180 min at 37°C or room temperature, depending on the specific receptor, as established by manufacturer optimization protocols (see Supplementary Table 1). For antagonist activity, cells were preincubated with an antagonist for 30 min, followed by an agonist challenge at 80% of the maximal effective concentration (EC80). Intermediate dilution of sample stocks was performed to generate 5× sample in assay buffer, of which 5 μL was added to cells and incubated at 37°C or room temperature for 30 min. […] Microplates were read with a PerkinElmer EnVision (Shelton, CT) instrument for chemiluminescent signal detection.
Measurement of agonist and antagonist activity in the assay was calculated as percent activity of relative luminescence units (from positive control). Significance of agonist/antagonist activity was determined based upon prespecified criteria provided by Eurofins DiscoverX. […]

[3] = system: 5-HT1B; conditions: IV DHE (53 ng/mL); cited from earlier work
[4] = system: D2S; conditions: IV DHE (53 ng/mL); cited from earlier work
[5] = system: α-adrenergic2A; conditions: IV DHE (53 ng/mL); cited from earlier work
[6] = target: T1, human 5-HT3 receptor (Homo sapiens, UniProt P46098); experiment: Radioligand competition binding, [3H]GR-65630, HEK-293 cell membranes
T1 construct: host or cells: HEK-293
T1 sequence (P46098 24-478): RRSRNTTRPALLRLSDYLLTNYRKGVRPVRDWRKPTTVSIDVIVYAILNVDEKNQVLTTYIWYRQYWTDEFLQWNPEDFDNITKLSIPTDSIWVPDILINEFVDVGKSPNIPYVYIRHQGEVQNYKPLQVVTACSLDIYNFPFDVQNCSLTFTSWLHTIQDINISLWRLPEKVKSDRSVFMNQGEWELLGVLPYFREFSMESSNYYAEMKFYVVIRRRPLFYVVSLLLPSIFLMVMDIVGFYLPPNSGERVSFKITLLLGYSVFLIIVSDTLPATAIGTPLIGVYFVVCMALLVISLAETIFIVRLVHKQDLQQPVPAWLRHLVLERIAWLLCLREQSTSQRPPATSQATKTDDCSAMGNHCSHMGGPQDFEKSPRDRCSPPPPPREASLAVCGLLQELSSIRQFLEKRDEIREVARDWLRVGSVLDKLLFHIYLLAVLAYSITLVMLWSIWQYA
Protocol: Nonspecific binding was determined in the presence of 10 μM MDL 72222. Following incubation, the samples were filtered rapidly under vacuum through glass fiber filters (GF/B, Packard; Kennesaw, GA) presoaked with 0.3% polyethyleneimine and rinsed several times with ice-cold 50 mM Tris–HCl using a 96-sample cell harvester (UniFilter, Packard). The filters were dried and then counted for radioactivity in a scintillation counter (TopCount, Packard) using a scintillation cocktail (MicroScint 0, Packard). Results are expressed as percent inhibition of the control radioligand–specific binding. The standard reference compound was MDL 72222, which was tested in each experiment at several concentrations to obtain a competition curve from which its half-maximal inhibitory concentration (IC50) was calculated.

[7] = system: human 5-HT1B; design: method as in doi:10.1186/1129-2377-14-S1-P75; conditions: cited from earlier work
[8] = target: T2, 5-HT2C (Homo sapiens, UniProt P28335); experiment: gpcrMAX PathHunter β-arrestin recruitment, agonist mode; format: cell-based; conditions: 10 μM; >30% activity = agonist
T2 construct: ProLink enzyme-donor fragment of β-galactosidase (own knowledge of the PathHunter design)
T2 sequence (P28335 33-458): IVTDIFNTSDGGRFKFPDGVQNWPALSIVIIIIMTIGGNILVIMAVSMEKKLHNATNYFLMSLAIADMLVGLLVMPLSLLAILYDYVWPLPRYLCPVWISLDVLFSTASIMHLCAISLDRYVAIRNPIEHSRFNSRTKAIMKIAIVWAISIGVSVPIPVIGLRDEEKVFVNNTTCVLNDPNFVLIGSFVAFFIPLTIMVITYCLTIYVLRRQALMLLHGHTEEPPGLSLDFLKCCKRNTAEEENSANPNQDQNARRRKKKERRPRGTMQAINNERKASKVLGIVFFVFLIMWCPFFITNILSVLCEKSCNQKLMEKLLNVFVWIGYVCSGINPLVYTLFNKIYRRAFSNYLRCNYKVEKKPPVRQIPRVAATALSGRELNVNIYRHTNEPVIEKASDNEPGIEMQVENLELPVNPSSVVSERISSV
Protocol: (§1) PathHunter cell lines were expanded from freezer stocks according to standard procedures and cells were seeded in a total volume of 20 μL into white-walled, 384-well microplates in duplicate and incubated at 37°C prior to testing. […] Intermediate dilution (1% vehicle concentration) of sample stocks was performed to generate a 5× sample in assay buffer, of which 5 μL was added to the cells and incubated for 90 or 180 min at 37°C or room temperature, depending on the specific receptor, as established by manufacturer optimization protocols (see Supplementary Table 1). For antagonist activity, cells were preincubated with an antagonist for 30 min, followed by an agonist challenge at 80% of the maximal effective concentration (EC80). Intermediate dilution of sample stocks was performed to generate 5× sample in assay buffer, of which 5 μL was added to cells and incubated at 37°C or room temperature for 30 min. This was followed by an addition of 5 μL of 6× EC80 agonist in assay buffer to the cells, which were incubated at 37°C or room temperature for 90 or 180 min. Assay signal for agonist and antagonist modes was generated through a single addition of 12.5 or 15 μL (50% v/v) of PathHunter Detection reagent cocktail, followed by a 1-h incubation at room temperature. Further experimental details can be found in the Supplementary File. Microplates were read with a PerkinElmer EnVision (Shelton, CT) instrument for chemiluminescent signal detection.
(§2) Measurement of agonist and antagonist activity in the assay was calculated as percent activity of relative luminescence units (from positive control). Significance of agonist/antagonist activity was determined based upon prespecified criteria provided by Eurofins DiscoverX. In brief, receptor activity >30% was considered a significant agonist effect. Receptor inhibition >50% was considered a significant inhibitory effect. Please refer to the Supplementary File for more detail.
(§3) Samples were added to cells and incubated for 90 or 180 minutes at 37 °C or room temperature, depending on the specific receptor, as noted, with specific incubation protocols outlined in Supplemental Table 1. For antagonist activity, preincubation temperatures were performed at the temperatures specified in Supplemental Table 1, per target. Incubation with 6× EC80 agonist was determined by the assay manufacturer and selected in order to provide a challenge that was low enough to be below the saturation point, so as to not bias the results, while still at a high enough challenge concentration to yield a robust signal-to-noise ratio. Further information is available from Eurofins Discovery Services upon request.

[9] = target: T3, 5-HT1A (Homo sapiens, UniProt P08908); experiment: as above; format: cell-based; conditions: 10 μM; >30% activity = agonist
T3 construct: ProLink enzyme-donor fragment of β-galactosidase (own knowledge of the PathHunter design)
T3 sequence (P08908 whole entry, the tested form may be a part): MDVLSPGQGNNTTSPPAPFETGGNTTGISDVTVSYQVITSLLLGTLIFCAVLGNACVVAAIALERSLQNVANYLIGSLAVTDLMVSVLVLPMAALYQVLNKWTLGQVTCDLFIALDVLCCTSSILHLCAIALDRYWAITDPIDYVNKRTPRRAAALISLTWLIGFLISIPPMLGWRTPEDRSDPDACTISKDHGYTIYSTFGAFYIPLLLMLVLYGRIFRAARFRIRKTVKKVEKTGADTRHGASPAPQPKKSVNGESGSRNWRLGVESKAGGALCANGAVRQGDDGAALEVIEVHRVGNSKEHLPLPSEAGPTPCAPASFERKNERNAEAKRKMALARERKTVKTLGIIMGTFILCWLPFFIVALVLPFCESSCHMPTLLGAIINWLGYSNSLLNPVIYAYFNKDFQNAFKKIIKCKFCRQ
Protocol: as §1, §2, §3

[10] = target: T4, 5-HT1B (Homo sapiens, UniProt P28222); experiment: as above; format: cell-based; conditions: 10 μM; >30% activity = agonist
T4 construct: host or cells: Chem-1 cells
T4 sequence (P28222 whole entry): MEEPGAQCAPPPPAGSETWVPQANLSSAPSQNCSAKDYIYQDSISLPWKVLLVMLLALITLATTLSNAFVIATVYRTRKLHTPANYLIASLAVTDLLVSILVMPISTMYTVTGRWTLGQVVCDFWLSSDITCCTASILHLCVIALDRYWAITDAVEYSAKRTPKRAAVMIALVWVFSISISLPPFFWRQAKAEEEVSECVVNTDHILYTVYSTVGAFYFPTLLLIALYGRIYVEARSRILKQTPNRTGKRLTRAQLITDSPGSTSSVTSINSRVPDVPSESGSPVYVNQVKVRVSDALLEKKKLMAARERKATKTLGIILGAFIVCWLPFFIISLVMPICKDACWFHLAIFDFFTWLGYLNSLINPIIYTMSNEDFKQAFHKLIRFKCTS
Protocol: as §1, §2, §3

[11] = target: T5, 5-HT5A (Homo sapiens, UniProt P47898); experiment: as above; format: cell-based; conditions: 10 μM; >30% activity = agonist
T5 construct: ProLink enzyme-donor fragment of β-galactosidase (own knowledge of the PathHunter design)
T5 sequence (P47898 whole entry, the tested form may be a part): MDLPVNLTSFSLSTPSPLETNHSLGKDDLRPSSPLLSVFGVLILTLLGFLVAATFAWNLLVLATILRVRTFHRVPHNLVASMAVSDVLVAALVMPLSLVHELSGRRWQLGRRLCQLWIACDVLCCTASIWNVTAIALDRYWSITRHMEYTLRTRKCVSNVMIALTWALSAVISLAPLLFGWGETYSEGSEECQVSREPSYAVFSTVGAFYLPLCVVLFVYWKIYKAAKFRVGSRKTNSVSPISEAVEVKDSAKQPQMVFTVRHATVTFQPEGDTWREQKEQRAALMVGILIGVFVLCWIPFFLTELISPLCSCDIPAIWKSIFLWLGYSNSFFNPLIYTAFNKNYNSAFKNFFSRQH
Protocol: as §1, §2, §3

[12] = target: T6, D2L (Homo sapiens, UniProt P14416); experiment: as above; format: cell-based; conditions: 10 μM; >30% activity = agonist
T6 construct: ProLink enzyme-donor fragment of β-galactosidase (own knowledge of the PathHunter design)
T6 sequence (P14416 whole entry, the tested form may be a part): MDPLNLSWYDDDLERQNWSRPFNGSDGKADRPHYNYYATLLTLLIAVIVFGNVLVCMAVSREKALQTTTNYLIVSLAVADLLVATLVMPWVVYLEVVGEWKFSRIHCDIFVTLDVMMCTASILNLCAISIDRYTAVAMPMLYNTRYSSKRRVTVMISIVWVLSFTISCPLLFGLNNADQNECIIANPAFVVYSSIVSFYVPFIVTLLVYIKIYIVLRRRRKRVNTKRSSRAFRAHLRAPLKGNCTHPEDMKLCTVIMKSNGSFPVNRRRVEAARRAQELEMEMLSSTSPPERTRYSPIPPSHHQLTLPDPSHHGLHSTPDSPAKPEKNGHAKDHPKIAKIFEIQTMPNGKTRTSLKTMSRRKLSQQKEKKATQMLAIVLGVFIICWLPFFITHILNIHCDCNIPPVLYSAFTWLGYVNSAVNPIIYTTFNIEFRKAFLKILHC
Protocol: as §1, §2, §3

[13] = target: T7, D5 (Homo sapiens, UniProt P21918); experiment: as above; format: cell-based; conditions: 10 μM; >30% activity = agonist
T7 construct: ProLink enzyme-donor fragment of β-galactosidase (own knowledge of the PathHunter design)
T7 sequence (P21918 whole entry, the tested form may be a part): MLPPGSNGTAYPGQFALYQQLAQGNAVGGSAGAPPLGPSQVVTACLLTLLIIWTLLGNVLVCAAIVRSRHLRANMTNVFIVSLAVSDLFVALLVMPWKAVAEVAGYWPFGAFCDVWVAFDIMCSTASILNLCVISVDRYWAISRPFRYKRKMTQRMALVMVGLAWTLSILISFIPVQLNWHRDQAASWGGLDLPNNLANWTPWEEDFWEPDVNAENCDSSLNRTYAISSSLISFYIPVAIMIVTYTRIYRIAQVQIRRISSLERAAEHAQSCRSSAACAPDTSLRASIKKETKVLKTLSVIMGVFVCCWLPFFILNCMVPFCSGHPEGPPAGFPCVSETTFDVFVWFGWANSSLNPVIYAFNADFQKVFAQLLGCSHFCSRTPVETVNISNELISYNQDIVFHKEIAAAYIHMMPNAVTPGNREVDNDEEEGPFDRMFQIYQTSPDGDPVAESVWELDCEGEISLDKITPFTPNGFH
Protocol: as §1, §2, §3

[14] = target: T8, D2S (Homo sapiens, UniProt P14416); experiment: as above; format: cell-based; conditions: 10 μM; >30% activity = agonist
T8 construct: ProLink enzyme-donor fragment of β-galactosidase (own knowledge of the PathHunter design)
T8 sequence (P14416 1-414 isoform P14416-2): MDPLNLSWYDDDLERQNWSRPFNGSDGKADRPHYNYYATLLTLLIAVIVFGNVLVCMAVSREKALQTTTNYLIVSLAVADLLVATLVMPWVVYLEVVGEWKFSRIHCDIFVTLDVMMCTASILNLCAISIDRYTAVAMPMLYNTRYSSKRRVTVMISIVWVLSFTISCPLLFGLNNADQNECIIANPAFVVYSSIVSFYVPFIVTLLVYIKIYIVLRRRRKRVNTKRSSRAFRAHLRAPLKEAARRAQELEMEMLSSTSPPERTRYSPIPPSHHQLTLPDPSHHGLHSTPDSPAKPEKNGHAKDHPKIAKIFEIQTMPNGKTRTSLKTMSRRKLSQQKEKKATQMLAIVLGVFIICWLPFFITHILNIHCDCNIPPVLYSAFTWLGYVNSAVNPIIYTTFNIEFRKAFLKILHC
Protocol: as §1, §2, §3

[15] = system: 5-HT6; conditions: IV DHE (53 ng/mL); cited from earlier work
[16] = system: 5-HT1D; design: method as in doi:10.1186/1129-2377-14-S1-P75; conditions: cited from earlier work
[17] = system: 5-HT7; conditions: IV DHE (53 ng/mL); cited from earlier work
[18] = system: α-adrenergic1; conditions: IV DHE (53 ng/mL); cited from earlier work
[19] = system: 5-HT5A; conditions: IV DHE (53 ng/mL); cited from earlier work
[20] = system: 5-HT1D; conditions: IV DHE (53 ng/mL); cited from earlier work
[21] = target: T4, 5-HT1B; experiment: Radioligand competition binding, [3H]GR125743, Chem-1 cells
Protocol: (§4) All assays were performed in duplicate (ie, 2 replicates per assay, per standard manufacturer protocol).

[22] = target: T7, D5; experiment: Radioligand competition binding, [3H]SCH 23390, GH4 cells
Protocol: as §4

[23] = system: 5-HT1A; conditions: IV DHE (53 ng/mL); cited from earlier work
[24] = system: α-adrenergic2C; conditions: IV DHE (53 ng/mL); cited from earlier work
[25] = system: 5-HT2C; conditions: IV DHE (53 ng/mL); cited from earlier work

## CN1C[C@H](C(=O)N[C@]2(C)O[C@@]3(O)[C@@H]4CCCN4C(=O)[C@H](Cc4ccccc4)N3C2=O)C[C@@H]2c3cccc4[nH]cc(c34)C[C@H]21 [DHE, Dihydroergotamine mesylate]
[1]; 5-HT1B and 5-HT1D
  time bound to the receptors longer than sumatriptan: 8 to 14 h
[1]; human 5-HT1B and 5-HT1D
  dissociation half-lives, times longer than those of sumatriptan: approximately 10 times
[2]
  EC50: 6 µM
[2]; 10 μM, >30% activity = agonist
  DHE activity (screening): Agonist
[3]
  receptor radioligand binding (active binding): X (An X denotes active binding)
[4]
  receptor radioligand binding (active binding): X (An X denotes active binding)
[5]
  receptor radioligand binding (active binding): X (An X denotes active binding)
[6]
  IC50: > 300 nM
[6]; at concentrations up to 300 nM
  binding to the 5-HT3 receptor: did not bind; also recorded: did not exhibit binding
[7]
  dissociation half-life: 1.38 h
[8]
  DHE activity (screening): Agonist
[9]
  DHE activity (screening): Agonist
[10]
  DHE activity (screening): Agonist
[11]
  DHE activity (screening): Agonist
[12]
  DHE activity (screening): Agonist
[13]
  DHE activity (screening): Agonist
[14]
  DHE activity (screening): Agonist
[15]
  receptor radioligand binding (active binding): X (An X denotes active binding)
[16]
  dissociation half-life: 1.28 h
[17]
  receptor radioligand binding (active binding): X (An X denotes active binding)
[18]
  receptor radioligand binding (active binding): X (An X denotes active binding)
[19]
  receptor radioligand binding (active binding): X (An X denotes active binding)
[20]
  receptor radioligand binding (active binding): X (An X denotes active binding)
[21]
  IC50: 0.58 nM
[22]
  IC50: 370 nM
[23]
  receptor radioligand binding (active binding): X (An X denotes active binding)
[24]
  receptor radioligand binding (active binding): X (An X denotes active binding)
[25]
  receptor radioligand binding (active binding): X (An X denotes active binding)
